For series [1] the following is noted: snar bond, 15-membered ring.
The target in series [2] is T1, CFTR-mediated chloride transport (Homo sapiens, UniProt P13569). The experiment in a line: Corrector Assay A - membrane potential dye assay (enteroid cells). The settings on record: for Corrector Assay A % activity: % of chloride transport of triple combination control (1 μM (14S)-dispiro macrocycle + 3 μM tezacaftor + 300 nM ivacaftor); for pEC50: read-out: Corrector Assay A EC50, human intestinal enteroid cells, 18-24 h incubation, acute 10 μM forskolin + 300 nM ivacaftor.
Procedure: Base medium (ADF+++) consisted of Advanced DMEM/Ham's F12, 2 mM Glutamax, 10 mM HEPES, 1 μg/ml penicillin/streptomycin.
Intestinal enteroid maintenance medium (IEMM) consisted of ADF+++, 1×B27 supplement, 1×N2 supplement, 1.25 mM N-acetyl cysteine, 10 mM Nicotinamide, 50 ng/mL hEGF, 10 nM Gastrin, 1 μg/mL hR-spondin-1, 100 ng/mL hNoggin, TGF-b type 1 inhibitor A-83-01, 100 μg/mL Primocin, 10 μM P38 MAPK inhibitor SB202190.
Bath 1 Buffer consisted of 1 mM MgCl2, 160 mM NaCl, 4.5 mM KCl, 10 mM HEPES, 10 mM Glucose, 2 mM CaCl2).
Chloride Free Buffer consisted of 1 mM Magnesium Gluconate, 2 mM Calcium Gluconate, 4.5 mM Potassium Gluconate, 160 mM Sodium Gluconate, 10 mM HEPES, 10 mM Glucose.
Bath 1 Dye Solution consisted of Bath 1 Buffer, 0.04% Pluronic F127, 20 μM Methyl Oxonol, 30 μM CaCCinh-A01, 30 μM Chicago Sky Blue.
Chloride Free Dye Solution consisted of Chloride Free Buffer, 0.04% Pluronic F127, 20 μM Methyl Oxonol, 30 μM CaCCinh-A01, 30 μM Chicago Sky Blue.
Chloride Free Dye Stimulation Solution consisted of Chloride Free Dye Solution, 10 μM forskolin, 100 μM IBMX, and 300 nM Ivacaftor.
Cells were recovered in cell recovery solution, collected by centrifugation at 650 rpm for 5 min at 4° C., resuspended in TryPLE and incubated for 5 min at 37° C. Cells were then collected by centrifugation at 650 rpm for 5 min at 4° C. and resuspended in IEMM containing 10 μM ROCK inhibitor (RI). The cell suspension was passed through a 40 μm cell strainer and resuspended at 1×10^6 cells/mL in IEMM containing 10 μM RI. Cells were seeded at 5000 cells/well into multi-well plates and incubated for overnight at 37° C., 95% humidity and 5% CO2 prior to assay.
Briefly, cells were washed 5 times in Bath 1 Buffer. Bath 1 Dye Solution was added and the cells were incubated for 25 min at room temperature. Following dye incubation, cells were washed 3 times in Chloride Free Dye Solution. Chloride transport was initiated by addition of Chloride Free Dye Stimulation Solution and the fluorescence signal was read for 15 min. The CFTR-mediated chloride transport for each condition was determined from the AUC of the fluorescence response to acute forskolin and 300 nM N-[2,4-bis(1,1-dimethylethyl)-5-hydroxyphenyl]-1,4-dihydro-4-oxoquinoline-3-carboxamide stimulation. Chloride transport was then expressed as a percentage of the chloride transport following treatment with 1 μM (14S)-8-[3-(2-{Dispiro[2.0.2.1]heptan-7-yl}ethoxy)-1H-pyrazol-1-yl]-12,12-dimethyl-2λ^6-thia-3,9,11,18,23-pentaazatetracyclo[17.3.1.111,14.05,10]tetracosa-1(22),5,7,9,19(23),20-hexaene-2,2,4-trione, 3 μM (R)-1-(2,2-difluorobenzo[d][1,3]dioxol-5-yl)-N-(1-(2,3-dihydroxypropyl)-6-fluoro-2-(1-hydroxy-2-methylpropan-2-yl)-1H-indol-5-yl)cyclopropanecarboxamide and 300 nM acute N-[2,4-bis(1,1-dimethylethyl)-5-hydroxyphenyl]-1,4-dihydro-4-oxoquinoline-3-carboxamide triple combination control (% Activity).

The conditions of series [3]: snar bond, 15-membered ring, DMSO, 2 steps.
Series [4] has as its target T1, CFTR-mediated chloride transport. Nature of the series: Corrector Assay B - membrane potential dye assay (enteroid cells).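 On all read-outs here: methyl oxonol membrane potential fluorescence followed over 15 min after switching to chloride-free buffer with forskolin, 100 µM IBMX and ivacaftor, in presence of CaCC blockers.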 Conditions: for Corrector Assay B % activity: % of chloride transport of triple combination control (3 μM Compound A + 3 μM tezacaftor + 300 nM ivacaftor); for pEC50: read-out: Corrector Assay B EC50, human intestinal enteroid cells, 18-24 h incubation, acute 10 μM forskolin + 300 nM ivacaftor.

pEC50: −log10 of the molar value. Values joined by “and” are separate entries in the source; they are usually repeats but may differ in a detail not shown here. Equal entries are not always repeated. Where two headings read alike, the source gives them in different places. Bounds are passed on as bounds.

Regarding `C=CC1CC[C@@H]2CN(c3nc(C(C)(C)C)ccc3C(=O)NS(=O)(=O)c3cccc(n3)N1)C(C)(C)C2` (some centres unmarked), the ring closure, isolated yield in series [1] (from C=CC(CC[C@@H]1CN(C(=O)OC(C)(C)C)C(C)(C)C1)Nc1cccc(S(=O)(=O)NC(=O)c2ccc(C(C)(C)C)nc2F)n1, K2CO3, NMP, 159.0 mM, 150.0 °C, 2 steps) was 22% and 25%.

In series [1] (from CC(C)(C)CC(CNc1cccc(S(=O)(=O)NC(=O)c2ccc(-n3ccc(OCCC4C5(CC5)C45CC5)n3)nc2Cl)n1)C[C@@H]1CNC(C)(C)C1, K2CO3, DMSO, 73.6 mM, 120.0 °C, 20.0 h), `CC(C)(C)CC1CNc2cccc(n2)S(=O)(=O)NC(=O)c2ccc(-n3ccc(OCCC4C5(CC5)C45CC5)n3)nc2N2C[C@@H](C1)CC2(C)C` (some centres unmarked) displayed a ring closure, isolated yield of 44%.

Regarding `CC(C)(C)CC1CNc2cccc(n2)S(=O)(=O)NC(=O)c2ccc(C(C)(C)C)nc2N2C[C@@H](C1)CC2(C)C` (some centres unmarked), the ring closure, isolated yield in series [1] (from CC(C)(C)CC(CNc1cccc(S(=O)(=O)NC(=O)c2ccc(C(C)(C)C)nc2F)n1)C[C@@H]1CNC(C)(C)C1, K2CO3, DMSO, 94.7 mM, 120.0 °C, 24.0 h) came out at 27%.

`CC(C)(C)c1ccc2c(n1)N1C[C@@H](CCC(c3cc(Br)ccn3)Nc3cccc(n3)S(=O)(=O)NC2=O)CC1(C)C` (some centres unmarked) registered a ring closure, isolated yield in series [1] (from CC(C)(C)OC(=O)N1C[C@@H](CCC(Nc2cccc(S(=O)(=O)NC(=O)c3ccc(C(C)(C)C)nc3F)n2)c2cc(Br)ccn2)CC1(C)C, K2CO3, NMP, 77.8 mM, 150.0 °C, 2 steps) of 21%.

Compound `CC(C)(C)c1ccnc(C2CC[C@@H]3CN(c4cc(C(C)(C)C)c(Br)cc4C(=O)NS(=O)(=O)c4cccc(n4)N2)C(C)(C)C3)c1` (some centres unmarked) came in with a ring closure, isolated yield in series [1] (from CC1(C)C[C@H](CCC(Nc2cccc(S(=O)(=O)NC(=O)c3cc(Br)c(C(C)(C)C)cc3F)n2)c2cc(C(C)(C)C)ccn2)CN1, Cs2CO3, DMSO, 58.3 mM, 150.0 °C, 96.0 h) of 17%.

With `CC(C)(C)c1ccnc(C2CC[C@@H]3CN(c4nc(-n5ccc(OCCC6C7(CC7)C67CC7)n5)ccc4C(=O)NS(=O)(=O)c4cccc(n4)N2)C(C)(C)C3)c1` (some centres unmarked), the ring closure, isolated yield in series [1] (from CC(C)(C)OC(=O)N1C[C@@H](CCC(Nc2cccc(S(=O)(=O)NC(=O)c3ccc(-n4ccc(OCCC5C6(CC6)C56CC6)n4)nc3Cl)n2)c2cc(C(C)(C)C)ccn2)CC1(C)C, K2CO3, NMP, 48.8 mM, 140.0 °C, 2 steps) was found to be 44.5%.

In the case of `CC(C)(C)c1ccnc(C2CC[C@@H]3CN(c4nc(C(C)(C)C)c(Br)cc4C(=O)NS(=O)(=O)c4cccc(n4)N2)C(C)(C)C3)c1` (some centres unmarked), the ring closure, isolated yield in series [1] (from CC(C)(C)OC(=O)N1C[C@@H](CCC(Nc2cccc(S(=O)(=O)NC(=O)c3cc(Br)c(C(C)(C)C)nc3Cl)n2)c2cc(C(C)(C)C)ccn2)CC1(C)C, K2CO3, NMP, 61.5 mM, 160.0 °C, 2 steps) stood at 56%.

`CC(C)(C)c1ccnc(C2CC[C@H]3CCCN(C3)c3nc(C(C)(C)C)ccc3C(=O)NS(=O)(=O)c3cccc(n3)N2)c1` (some centres unmarked) gave a ring closure, isolated yield in series [1] (from CC(C)(C)c1ccnc(C(CC[C@H]2CCCNC2)Nc2cccc(S(=O)(=O)NC(=O)c3ccc(C(C)(C)C)nc3F)n2)c1, K2CO3, DMSO, 69.4 mM, 120.0 °C, 24.0 h) of 17%.

With `CC(C)(C)c1ccnc(C2CC[C@H]3CCN(C3)c3nc(C(C)(C)C)ccc3C(=O)NS(=O)(=O)c3cccc(n3)N2)c1` (some centres unmarked), the ring closure, isolated yield in series [1] (from CC(C)(C)c1ccnc(C(CC[C@H]2CCNC2)Nc2cccc(S(=O)(=O)NC(=O)c3ccc(C(C)(C)C)nc3F)n2)c1, K2CO3, DMSO, 77.9 mM, 120.0 °C, 2.0 h) is 54%.

`CC1(C)CC2CN1c1nc(-n3ccc(OCCC4C5(CC5)C45CC5)n3)ccc1C(=O)NS(=O)(=O)c1cccc(n1)NCCC2CCc1ccccc1` (centres unmarked): in series [1] (from CC1(C)CC(C(CCNc2cccc(S(=O)(=O)NC(=O)c3ccc(-n4ccc(OCCC5C6(CC6)C56CC6)n4)nc3Cl)n2)CCc2ccccc2)CN1, K2CO3, NMP, 64.5 mM, 150.0 °C, 20.0 h, 2 steps), the ring closure, isolated yield turned out to be 61%.

In the case of `CC1(C)C[C@@H]2CCC(c3ccccn3)Nc3cccc(n3)S(=O)(=O)NC(=O)c3ccc(-n4ccc(OCCC5(C(F)(F)F)CC5)n4)nc3N1C2` (some centres unmarked), the ring closure, isolated yield in series [1] (from CC1(C)C[C@H](CCC(Nc2cccc(S(=O)(=O)NC(=O)c3ccc(-n4ccc(OCCC5(C(F)(F)F)CC5)n4)nc3Cl)n2)c2ccccn2)CN1, K2CO3/3A MS, DMSO, 26.1 mM, 155.0 °C, 18.0 h, 2 steps) came out at 38%.

Regarding `CC1(C)C[C@@H]2CCC(c3cncnc3)Nc3cccc(n3)S(=O)(=O)NC(=O)c3ccc(-n4ccc(OCCC5(C(F)(F)F)CC5)n4)nc3N1C2` (some centres unmarked), in series [1] (from CC1(C)C[C@H](CCC(Nc2cccc(S(=O)(=O)NC(=O)c3ccc(-n4ccc(OCCC5(C(F)(F)F)CC5)n4)nc3Cl)n2)c2cncnc2)CN1, K2CO3/3A MS, DMSO, 49.2 mM, 155.0 °C, 18.0 h), the ring closure, isolated yield came out at 28%.

Turning to `CC1(C)C[C@@H]2CCCNc3cccc(n3)S(=O)(=O)NC(=O)c3ccc(-n4ccc(OCCC5C6(CC6)C56CC6)n4)cc3N1C2`, in series [1] (from CC1(C)C[C@H](CCCNc2cccc(S(=O)(=O)NC(=O)c3ccc(-n4ccc(OCCC5C6(CC6)C56CC6)n4)cc3F)n2)CN1, Cs2CO3, DMSO, 67.0 mM, 150.0 °C, 96.0 h), the ring closure, isolated yield was found to be 29%.

Take `CC1(C)C[C@@H]2CCNCc3cccc(n3)S(=O)(=O)NC(=O)c3ccc(-n4ccc(OCCC5C6(CC6)C56CC6)n4)nc3N1C2`: in series [1] (from CC1(C)C[C@H](CCNCc2cccc(S(=O)(=O)NC(=O)c3ccc(-n4ccc(OCCC5C6(CC6)C56CC6)n4)nc3Cl)n2)CN1, K2CO3, DMSO, 57.3 mM, 120.0 °C, 24.0 h), the ring closure, isolated yield came out at 3%.

For the compound `CC1(C)CC(C2CC[C@@H]3CN(c4nc(C(C)(C)C)ccc4C(=O)NS(=O)(=O)c4cccc(n4)N2)C(C)(C)C3)CC(C)(C)O1` (mixture of isomers), the ring closure, isolated yield in series [1] (from 6-tert-Butyl-N-[[6-[[3-[(3S)-5,5-dimethylpyrrolidin-3-yl]-1-(2,2,6,6-tetramethyltetrahydropyran-4-yl)propyl]amino]-2-pyridyl]sulfonyl]-2-fluoro-pyridine-3-carboxamide (Trifluoroacetic Acid (1)), K2CO3, DMF, 80.7 mM, 140.0 °C) was found to be 48%.

Consider `CC(C)(C)c1ncc2c(n1)N1C[C@@H](CCCNc3cccc(n3)S(=O)(=O)NC2=O)CC1(C)C` [Compound 11, (14S)-8-tert-butyl-12,12-dimethyl-2λ^6-thia-3,7,9,11,18,23-hexaazatetracyclo[17.3.1.111,14.05,10]tetracosa-1(22),5,7,9,19(23),20-hexaene-2,2,4-trione], for which, in series [2], the “Corrector Assay A % activity” value is recorded as “++ (++ is 30-60%)” and the negative logarithm of the EC50 (pEC50) was 5.52 to 6.00. The ring closure, isolated yield in series [1] (from 2-tert-Butyl-4-chloro-N-[[6-[3-[(3S)-5,5-dimethylpyrrolidin-3-yl]propylamino]-2-pyridyl]sulfonyl]pyrimidine-5-carboxamide (dihydrochloride salt), K2CO3/CsF, NMP, 123.1 mM, 150.0 °C) is 13%.

Consider `CC(C)(C)c1ccc2c(n1)N1C[C@@H](CCCNc3cccc(n3)S(=O)(=O)NC2=O)CC1(C)C` [Compound 296, (14S)-8-tert-Butyl-12,12-dimethyl-2λ^6-thia-3,9,11,18,23-pentaazatetracyclo[17.3.1.111,14.05,10]tetracosa-1(23),5(10),6,8,19,21-hexaene-2,2,4-trione], for which the ring closure, yield after HPLC in series [3] (from CC1(C)C[C@H](CCCNc2cccc(S(=O)(=O)NC(=O)c3ccc(C(C)(C)C)nc3Cl)n2)CN1, K2CO3/3A MS, 53.4 mM, 165.0 °C, 60.0 h) is 43%. Moreover, in series [2], the “Corrector Assay A % activity” value is “+++ (+++ is >60%)” and the pEC50 is above 6.00. In series [4], the “Corrector Assay B % activity” value is reported as “+++ (+++ is >60%)” and the negative logarithm of the EC50 (pEC50) was above 6.00.

On to `CC1(C)C[C@@H]2CCCN(CC(O)CO)c3cccc(n3)S(=O)(=O)NC(=O)c3ccc(-n4ccc(OCCC5(C(F)(F)F)CC5)n4)nc3N1C2` (stereo partly drawn) [Compound 382, (14S)-18-(2,3-dihydroxypropyl)-12,12-dimethyl-8-(3-{2-[1-(trifluoromethyl)cyclopropyl]ethoxy}-1H-pyrazol-1-yl)-2λ^6-thia-3,9,11,18,23-pentaazatetracyclo [17.3.1.111,14.05,10]tetracosa-1(22),5,7,9,19(23),20-hexaene-2,2,4-trione], for which the ring closure, yield after HPLC in series [3] (from CC(C)(C)OC(=O)N1C[C@@H](CCCN(CC2COC(C)(C)O2)c2cccc(S(=O)(=O)NC(=O)c3ccc(-n4ccc(OCCC5(C(F)(F)F)CC5)n4)nc3Cl)n2)CC1(C)C, K2CO3/4A MS, 38.5 mM, 140.0 °C) amounted to 59%. Also, in series [4], the “Corrector Assay B % activity” value is reported as “+++ (+++ is >60%)” and the pEC50 is above 6.00.

As to `CC1(C)C[C@@H]2CCCN(c3ccccc3)c3cccc(n3)S(=O)(=O)NC(=O)c3ccc(-n4ccc(OCCC5(C(F)(F)F)CC5)n4)nc3N1C2` [Compound 395, (14S)-12,12-dimethyl-18-phenyl-8-(3-{2-[1-(trifluoromethyl)cyclopropyl]ethoxy}-1H-pyrazol-1-yl)-2λ^6-thia-3,9,11,18,23-pentaazatetracyclo[17.3.1.111,14.05,10]tetracosa-1(23),5(10),6,8,19,21-hexaene-2,2,4-trione], in series [1] (from CC1(C)C[C@H](CCCN(c2ccccc2)c2cccc(S(=O)(=O)NC(=O)c3ccc(-n4ccc(OCCC5(C(F)(F)F)CC5)n4)nc3Cl)n2)CN1, K2CO3/3A MS, DMSO, 19.9 mM, 155.0 °C, 16.0 h, 2 steps), the ring closure, isolated yield was determined as 46%. Further, in series [4], the “Corrector Assay B % activity” value is recorded as “++ (++ is 30-60%)” and the negative logarithm of the EC50 (pEC50) was above 6.00.
